Source: patent EP2767544A1, “AMORPHOUS SUBSTANCE OF 17 -ACETOXY-11 -(4-N,N-DIMETHYLAMINOPHENYL)-19-NORPREGNA-4,9-DIENE-3,20-DIONE AND PREPARATION METHOD THEREOF” (Shanghai Cdymax Pharmaceuticals Co., Ltd., priority 2011, dated 2013)

Columns and labels:
[1] = Solubility test: apparent solubility in water, supernatant concentration determined by HPLC; conditions: for apparent solubility: excess sample in 0.5ml of water, ultrasonic approx. 3 minutes, standing 30 minutes at room temperature, supernatant by HPLC, 30 min
Protocol: After standing for 30 minutes at room temperature, separate the supernatant by centrifugation. Determine the concentration of sample in supernatant by HPLC (defined as apparent solubility).

[2] = Stability test: heat treatment under reduced pressure, analysed by XRPD, DSC, TGA and IR; assay type: physicochemical; conditions: dried under reduced pressure at 80 °C for 8 hours, then in vacuum for 15 hours, TGA
Protocol: Dry the samples of the amorphous CDB-2914 obtained in the above-mentioned examples under reduced pressure at 80 °C for 8 hours, and then dry in vacuum for 15 hours.

[3] = Hygroscopicity test using a microbalance; assay type: physicochemical; conditions: 25 °C, relative humidity of 5% to 95%, Figure 2
Protocol: Evaluate hygroscopicity of the amorphous substance using a microbalance (MBA300W, WTI Company, USA). Hang the sample placed on the glass rack in an apparatus that preconditioned at 25 °C, and track the changes of sample weight at a relative humidity of 5% to 95%. Measure the weight of sample at each measurement point (relative humidity) at 2 minutes intervals. The final value was the weight unit at a time point that the variability is less than 0.2%.

| SMILES | apparent solubility [1] [µg/mL] | thermal stability (solid form after heat treatment) [2] | hygroscopicity [3] | solubility relative to crystal form A ([1]; apparent solubility in water, amorphous versus crystal form A) [times] |
| --- | --- | --- | --- | --- |
| CC(=O)O[C@]1(C(C)=O)CC[C@H]2[C@@H]3CCC4=CC(=O)CCC4=C3[C@@H](c3ccc(N(C)C)cc3)C[C@@]21C [Known crystal(crystal form A), 17α-acetoxy-11β-(4-N,N-dimethylaminophenyl)-19-norpregna-4,9-diene-3,20-dione, reference compound] | 0.125 |  |  |  |
| CC(=O)O[C@]1(C(C)=O)CC[C@H]2[C@@H]3CCC4=CC(=O)CCC4=C3[C@@H](c3ccc(N(C)C)cc3)C[C@@]21C [amorphous form, 17α-acetoxy-11β-(4-N,N-dimethylaminophenyl)-19-norpregna-4,9-diene-3,20-dione] | 1 | remained amorphous | low hygroscopicity | 8 |
